Read-outs that look alike come from different tables or passages of the source.
Key:
[1] = hamster, in vivo, ip, 100 mg/kg
[2] = in vitro; settings: mouse, hepatocytes; for hepatocyte CLint at 2 h, 2 µM: CLint (mouse hepatocytes)
[3] = Human liver microsomal stability; settings: microsomes, pH 7.4
[4] = in vitro; settings: hamster, microsomes, pH 7.4
[5] = in vitro; settings: mouse, plasma, mouse plasma protein binding
[6] = biological target: mouse cathepsin B (mCTSB) (Mus musculus, UniProt P10605); test: mCTSB biochemical assay; settings: read-out: pIC50 (mouse CTSB) (converted)
Sequence of mouse cathepsin B (mCTSB) (P10605 80-339): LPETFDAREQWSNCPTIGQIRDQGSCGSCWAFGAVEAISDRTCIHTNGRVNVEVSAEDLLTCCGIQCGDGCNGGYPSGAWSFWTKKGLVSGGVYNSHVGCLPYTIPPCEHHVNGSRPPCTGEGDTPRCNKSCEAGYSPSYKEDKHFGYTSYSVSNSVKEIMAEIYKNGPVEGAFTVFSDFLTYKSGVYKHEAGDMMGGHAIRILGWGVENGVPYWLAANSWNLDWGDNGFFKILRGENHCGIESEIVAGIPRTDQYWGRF

[7] = biological target: T1, thrombin (Homo sapiens, UniProt P00734); test: Protease panel: thrombin; assay type: biochemical
T1 construct: preincubated with thrombin (10 nM, Sigma); purchased Sigma-Aldrich

[8] = 3 h, 2 µM
[9] = microsomes, 10 µM, pH 7.4
[10] = system: SARS-CoV; test: microbe, parasite or virus in culture; assay type: cell-based; settings: Severe acute respiratory syndrome coronavirus, read-out: pEC50 (SARS-CoV CPE reduction assay) (converted)
[11] = in vitro; settings: mouse, microsomes, pH 7.4
[12] = system: MERS-CoV; test: microbe, parasite or virus in culture; assay type: cell-based; settings: Middle East respiratory syndrome-related coronavirus, Huh-7, read-out: pEC50 (MERS-CoV CPE reduction assay) (converted)
[13] = Mouse liver microsomal stability; settings: microsomes, pH 7.4
[14] = biological target: SARS-CoV-2 M^pro (Severe acute respiratory syndrome coronavirus 2, UniProt P0DTD1); test: biochemical; assay type: biochemical; settings: read-out: M^pro biochemical assay pIC50 (converted)

SMILES	hepatocyte CLint at 2 h, 2 µM [2]	half-life [3]	microsomal CLint at 1 µM [4]	remaining at 1 h, 1 µM [4]	fraction unbound at 3 h, 2 µM ([5]; fraction bound (Fb))	fraction unbound at 3 h, 2 µM ([5]; fraction unbound (Fu))	inhibition at 10 µM [7]	mouse plasma protein binding, fraction bound (Fb) [8]	also measured
CC(C)(O)c1c(F)c(F)c(OCC(=O)[C@H](C[C@@H]2CCNC2=O)NC(=O)[C@@H]2[C@@H]3[C@H](CN2C(=O)[C@@H](NC(=O)C(F)(F)F)C(C)(C)C)C3(C)C)c(F)c1F [compound 14, (1R,2S,5S)-3-((S)-3,3-Dimethyl-2-(2,2,2-trifluoroacetamido)butanoyl)-6,6-dimethyl-N-((S)-3-oxo-1-((S)-2-oxopyrrolidin-3-yl)-4-(2,3,5,6-tetrafluoro-4-(2-hydroxypropan-2-yl)phenoxy)butan-2-yl)-3-azabicyclo[3.1.0]hexane-2-carboxamide]	112 µL/min/1e6 cells	35 min	377 µL/min/mg	0.1%	0.0076	0.0076	4.1 ± 1.5%	99.24%	clinical signs upon intraperitoneal dosing ([1]; female, Syrian golden): the animals were found dull and lethargic 15 min up until 45 min postdosing; hepatocyte CLint at 1 µM ([2]; CLint (mouse hepatocytes + ritonavir 4:1)): 26.7 µL/min/1e6 cells; IC50 [6]: 5010 nM
COc1cccc2[nH]c(C(=O)N[C@@H](Cc3cccc(F)c3)C(=O)N[C@@H](C[C@@H]3CCNC3=O)C(=O)COc3c(F)c(F)c(CO)c(F)c3F)cc12 [compound 1, N-((S)-3-(3-Fluorophenyl)-1-oxo-1-(((S)-3-oxo-1-((S)-2-oxopyrrolidin-3-yl)-4-(2,3,5,6-tetrafluoro-4-(hydroxymethyl)phenoxy)butan-2-yl)amino)propan-2-yl)-4-methoxy-1H-indole-2-carboxamide]	186 µL/min/1e6 cells	4.04 min	2370 µL/min/mg	0%	0.0194	0.0194	0.2 ± 1.1%	98.06%	clinical signs upon intraperitoneal dosing [1]: no clinical signs have been observed; Peak area (%) by LCMS, mouse liver microsomal stability assay of 1 ([9]; 0 h): 100%; Peak area (%) by LCMS, mouse liver microsomal stability assay of 1 ([9]; 5 min): 86.9%; Peak area (%) by LCMS, mouse liver microsomal stability assay of 1 ([9]; 0.25 h): 67.9%; Peak area (%) by LCMS, mouse liver microsomal stability assay of 1 ([9]; 0.5 h): 48.7%; Peak area (%) by LCMS, mouse liver microsomal stability assay of 1 ([9]; 0.75 h): 35.8%; Peak area (%) by LCMS, mouse liver microsomal stability assay of 1 ([9]; 1 h): 32.6%; EC50 [10]: 302 nM; microsomal CLint at 1 µM [11]: 586 µL/min/mg; remaining at 1 h, 1 µM [11]: 0%; EC50 [12]: 5.25 nM; half-life at 1 µM [13]: 1.18 min; IC50 [14]: 2.45 nM
